Columns and labels:
Design in all cases: species or system human
[1] = Urine odor and secondary odor panel ranking, dye powders in urine, 8 millimolar (Example 7); conditions: for Secondary Odor Ranking: scale 1 to 5, 5 extremely unpleasant, individual panelists' scores; for Average Urine Odor Ranking (with statistical corrections), Avg. Score: ignoring statistical anomalies
Method: (§1) Qualitative odor reduction was also assessed against common odors, such as garlic and urine. Specifically, panelists assessed odorant-containing jars by carefully unscrewing, and then raising the lid of each jar in a controlled manner, such that the odor was not diluted by the ambient air. The jars were wrapped and coded to ensure that the sample identity was unknown.
The effectiveness of various dyes in reducing urine odor was compared. […] Human female urine was initially collected and pooled by a nurse on staff at Kimberly-Clark Corporation. The pooled urine was added to mason jars in 50-milliliter aliquots using an automated pipette aid. Powders of the aforementioned dyes (commercially available from Sigma-Aldrich Chemical Co., Inc. of St. Louis, Mo. and Noveon Hilton Davis, Inc. of Cincinnati, Ohio) were weighed and placed into the mason jars containing 50 milliliters of urine so that the final concentration of the dye powder was 8 millimolar (equivalent to 0.5 wt. %). The mason jars were placed in an incubator overnight at 37° C.
To aid in the assessment of the dyes, the mason jars were divided into two groups for a morning assessment, and the best of both groups were compared in an afternoon assessment (after a total of 24 hours). In addition to ranking the jars from least to most malodorous (on a scale from 1 to 7, with 7 being the most malodors), panelists were also asked to judge whether there were secondary (non-urine) odors present and, if so, the extent that the secondary odors were unpleasant (on a scale from 1 to 5, with 5 being extremely unpleasant).
In this assessment, panelists were given instructions to rank the least malodorous jar as “1” and the most malodorous jar as “10,” remaining free to rank the other jars between 2-9.

[2] = Urine odor panel ranking, dye-coated Poise pads without SN-AK (Example 8); conditions: for Average Urine Odor Ranking, Avg. Score / overall urine odor control performance (panel): final pooled assessment; for Secondary Odor Ranking: scale of 1-5; for urine odor reduction (panel), assessment within set: overnight 37° C.; for overall urine odor control performance (panel): top-sheet coating
Method: as §1
Specifically, Acid Green 25, Acid Green 41, Acid Blue 129, and D&C Green No. 5 were tested. Powders of the aforementioned dyes (commercially available from Sigma-Aldrich Chemical Co., Inc. of St. Louis, Mo. and Noveon Hilton Davis, Inc. of Cincinnati, Ohio) were dissolved in water so that the concentration of the dye was 8 millimolar (equivalent to 0.5 wt. %). Samples of tissue wrap were created by cutting 9″×6″ sheets from a roll of tissue (1 ply white cellulose wrap sheet having a basis weight of 16.6 grams per square meter) were weighed, oven-dried overnight at 90° C., and weighed again the next day to calculate the amount of residual water in each wrap. The wraps were then dipped into a respective dye solution and hung to dry overnight, after which they were weighed again. The treated wraps were then rinsed in deionized water to remove any unbound dye and hung again to dry overnight. After weighing the treated wraps, they were once again oven-dried overnight at 90° C. and weighed to determine the dry add-on percentages ([…]). The add-on percentage for each sample was approximately 1.6 wt. %.
Two different sets of Poise® pads (commercially available from Kimberly-Clark Corp.) were tested. The first set of dye-coated tissue wraps (without SN-AK) was inserted around the pledgette area of the Poise® pads. The Poise® pads were cut open and the tissue wrap surrounding the pledgette carefully removed and replaced with dye-coated tissue wrap. The second set of dye-coated tissue wraps (without SN-AK) used dye coatings on the top of the pad (rather than inside). These pads were constructed by spreading the solution over the top of each pad. To prevent the superabsorbent area of the pad from soaking up the solution, the pads were cut open prior to coating and a layer of plastic wrap was placed between the top layer of the pad and the superabsorbent core. A pad that was cut open, but coated only with water on top, was used as a control. All pads were dried at room temperature overnight before placing them in mason jars for testing. For control purposes, a Poise® pad was also tested that was cut open, but retained its original tissue wrap. In addition, Serenity® Night & Day™ incontinence pads, which are commercially available from SCA Incontinence Care of Eddystone, Pa. and said to employ OdaSorb Plus™ to reduce odor, were also used for comparison.
Fresh human female urine was then pooled, and 50-milliliter aliquots were applied to the pads using a pipette. The mason jars were placed in a 37° C. incubator overnight for assessment the next day. […] Panelists were again asked to rank any secondary odors for unpleasantness on a scale of 1-5.

[3] = Urine odor panel ranking, dye powders in urine, 8 millimolar (Example 5); conditions: 8 millimolar dye in urine
Method: as §1, with “unknown. The effectiveness of various quinone dyes in reducing urine odor was compared. Human female urine was initially collected and pooled by a nurse on staff at Kimberly-Clark Corporation.” for “unknown.”

[4] = Second Grouping, morning assessment, 8 millimolar, higher = more malodorous
[5] = After 24 Hours, top performers of both groupings, 1 least, 10 most malodorous
[6] = First Grouping, morning assessment, 8 millimolar, 7 most malodorous
[7] = First Grouping, scale 1 to 7, 7 most malodorous
[8] = after 24 hours, top performers of both groupings
[9] = after 24 hours, top performers, 1 least, 10 most malodorous
[10] = 2nd set (top-sheet coating), After 30 Hours
[11] = first set of pads (dye-coated tissue wrap around pledgette)
[12] = second set of pads (dye coating on top of pad)
[13] = After 6 Hours, 10 most, 1 least malodorous
[14] = After 24 Hours, 10 most, 1 least malodorous
[15] = 1st set (tissue-wrap coating), After 30 Hours

## Nc1cc(S(=O)(=O)[O-])c(O)c2c1C(=O)c1c(O)c(S(=O)(=O)[O-])cc(N)c1C2=O.[Na+].[Na+] [Acid Blue 45]
[1]; Second Grouping
  Average Urine Odor Ranking, Avg. Score: 3.4
[1]; [4]
  Urine Odor Ranking (number of panelists): ranking 2: 1 number of panelists
  Urine Odor Ranking (number of panelists): ranking 3: 2 number of panelists
  Urine Odor Ranking (number of panelists): ranking 4: 1 number of panelists
  Urine Odor Ranking (number of panelists): ranking 5: 1 number of panelists

## Cc1ccc(Nc2ccc(Nc3ccc(C)cc3S(=O)(=O)[O-])c3c2C(=O)c2c(O)ccc(O)c2C3=O)c(S(=O)(=O)[O-])c1.[Na+].[Na+] [Acid Green 41]
[1]; [5]
  Urine Odor Ranking (number of panelists): ranking 1: 1 number of panelists
  Urine Odor Ranking (number of panelists): ranking 2: 2 number of panelists
  Urine Odor Ranking (number of panelists): ranking 3: 1 number of panelists
  Urine Odor Ranking (number of panelists): ranking 7: 1 number of panelists
[1]; [6]
  Urine Odor Ranking (number of panelists): ranking 1: 1 number of panelists
  Urine Odor Ranking (number of panelists): ranking 2: 2 number of panelists
  Urine Odor Ranking (number of panelists): ranking 3: 1 number of panelists
  Urine Odor Ranking (number of panelists): ranking 4: 1 number of panelists
[1]; First Grouping
  Secondary Odor Ranking: 1
[1]; [7]
  Average Urine Odor Ranking, Avg. Score: 2.4
[1]; [8]
  urine odor reduction (panel): achieved the best odor reduction
[1]; [9]
  Average Urine Odor Ranking, Avg. Score: 3.0
[1]; after 24 hours, top performers
  Average Urine Odor Ranking (with statistical corrections), Avg. Score: 2.0
[1]; first grouping
  urine odor reduction (panel): functioned effectively to reduce odor
[2]; 1st set (tissue-wrap coating)
  Average Urine Odor Ranking, Avg. Score: 4.50
[2]; [10]
  Urine Odor Ranking (number of panelists): ranking 2: 2 number of panelists
  Urine Odor Ranking (number of panelists): ranking 3: 1 number of panelists
  Urine Odor Ranking (number of panelists): ranking 4: 1 number of panelists
  Secondary Odor Ranking: 1
[2]; 2nd set (top-sheet coating)
  Average Urine Odor Ranking, Avg. Score: 2.75
[2]; [11]
  urine odor reduction (panel), assessment within set: performed best for the first set of pads
[2]; [12]
  urine odor reduction (panel), assessment within set: performed best for the second set of pads
[2]
  overall urine odor control performance (panel): best performer overall, followed by Acid Green 41

## CCN(Cc1cccc(S(=O)(=O)[O-])c1)c1ccc(C(=C2C=CC(=[N+](CC)Cc3cccc(S(=O)(=O)[O-])c3)C=C2)c2ccccc2S(=O)(=O)[O-])cc1.[Na+].[Na+] [FD&C Blue No. 1, reference compound]
[1]; [6]
  Urine Odor Ranking (number of panelists): ranking 4: 1 number of panelists
  Urine Odor Ranking (number of panelists): ranking 5: 4 number of panelists
[1]; First Grouping
  Secondary Odor Ranking: 3
[1]; [7]
  Average Urine Odor Ranking, Avg. Score: 4.8

## CCCCc1ccc(Nc2ccc(Nc3ccc(CCCC)cc3S(=O)(=O)[O-])c3c2C(=O)c2ccccc2C3=O)c(S(=O)(=O)[O-])c1.[Na+].[Na+] [Acid Green 27]
[3]; 6 and 24 hours
  urine malodor reduction (panel): functioned effectively in reducing urine malodor
[3]; [13]
  Avg. Ranking (odor): 4.4
  Ranking (number of panelists): ranking 4: 3 number of panelists
  Ranking (number of panelists): ranking 5: 2 number of panelists
[3]; [14]
  Avg. Ranking (odor): 4.5
  Ranking (number of panelists): ranking 1: 1 number of panelists
  Ranking (number of panelists): ranking 3: 2 number of panelists
  Ranking (number of panelists): ranking 7: 3 number of panelists
[1]; [5]
  Urine Odor Ranking (number of panelists): ranking 2: 1 number of panelists
  Urine Odor Ranking (number of panelists): ranking 8: 2 number of panelists
  Urine Odor Ranking (number of panelists): ranking 9: 1 number of panelists
  Urine Odor Ranking (number of panelists): ranking 10: 1 number of panelists
[1]; After 24 Hours
  Secondary Odor Ranking: 4
[1]; Second Grouping
  Average Urine Odor Ranking, Avg. Score: 3.6
  Secondary Odor Ranking: 2
[1]; [4]
  Urine Odor Ranking (number of panelists): ranking 2: 2 number of panelists
  Urine Odor Ranking (number of panelists): ranking 4: 1 number of panelists
  Urine Odor Ranking (number of panelists): ranking 5: 2 number of panelists
[1]; [9]
  Average Urine Odor Ranking, Avg. Score: 6.4
[1]; after 24 hours, top performers
  Average Urine Odor Ranking (with statistical corrections), Avg. Score: 8.8

## Cc1ccc(Nc2ccc(Nc3ccc(C)cc3S(=O)(=O)[O-])c3c2C(=O)c2ccccc2C3=O)c(S(=O)(=O)[O-])c1.[Na+].[Na+] [Acid Green 25]
[1]; [5]
  Urine Odor Ranking (number of panelists): ranking 1: 3 number of panelists
  Urine Odor Ranking (number of panelists): ranking 2: 1 number of panelists
  Urine Odor Ranking (number of panelists): ranking 10: 1 number of panelists
[1]; [6]
  Urine Odor Ranking (number of panelists): ranking 1: 3 number of panelists
  Urine Odor Ranking (number of panelists): ranking 2: 1 number of panelists
  Urine Odor Ranking (number of panelists): ranking 6: 1 number of panelists
[1]; [7]
  Average Urine Odor Ranking, Avg. Score: 2.2
[1]; Second Grouping
  Average Urine Odor Ranking, Avg. Score: 4.4
[1]; [8]
  urine odor reduction (panel): achieved the best odor reduction
[1]; [9]
  Average Urine Odor Ranking, Avg. Score: 3.0
[1]; after 24 hours, top performers
  Average Urine Odor Ranking (with statistical corrections), Avg. Score: 1.3
[1]; first grouping
  secondary (non-urine) odor (panel): not found to be unpleasant by most panelists
  urine odor reduction (panel): functioned effectively to reduce odor
[2]; [15]
  Urine Odor Ranking (number of panelists): ranking 3: 1 number of panelists
  Urine Odor Ranking (number of panelists): ranking 4: 1 number of panelists
  Urine Odor Ranking (number of panelists): ranking 5: 1 number of panelists
  Urine Odor Ranking (number of panelists): ranking 6: 1 number of panelists
  Secondary Odor Ranking: 4
[2]; 1st set (tissue-wrap coating)
  Average Urine Odor Ranking, Avg. Score: 4.50
[2]; [10]
  Urine Odor Ranking (number of panelists): ranking 1: 3 number of panelists
  Urine Odor Ranking (number of panelists): ranking 7: 1 number of panelists
[2]; 2nd set (top-sheet coating)
  Average Urine Odor Ranking, Avg. Score: 2.50
[2]; [11]
  urine odor reduction (panel), assessment within set: performed best for the first set of pads
[2]; [12]
  urine odor reduction (panel), assessment within set: performed best for the second set of pads
[2]
  overall urine odor control performance (panel): best performer overall

## O=C1C=C(S(=O)(=O)[O-])C(=O)c2ccccc21.[K+] [1,4 Naphthaquinone, 1,4 naphthaquinone-2-sulfonic acid potassium salt]
[1]; Second Grouping
  Average Urine Odor Ranking, Avg. Score: 1.8
  secondary (non-urine) odor (panel): unpleasant secondary odor
[1]; [4]
  Urine Odor Ranking (number of panelists): ranking 1: 2 number of panelists
  Urine Odor Ranking (number of panelists): ranking 2: 2 number of panelists
  Urine Odor Ranking (number of panelists): ranking 3: 1 number of panelists

## 1,2 naphthaquinone-2-sulfonic acid potassium salt
[1]; [6]
  Urine Odor Ranking (number of panelists): ranking 2: 1 number of panelists
  Urine Odor Ranking (number of panelists): ranking 3: 2 number of panelists
  Urine Odor Ranking (number of panelists): ranking 4: 1 number of panelists
  Urine Odor Ranking (number of panelists): ranking 7: 1 number of panelists
[1]; [7]
  Average Urine Odor Ranking, Avg. Score: 3.8
[1]; first grouping
  secondary (non-urine) odor (panel): an unpleasant secondary smell was found to be present
  urine odor reduction (panel): effectively reduced urine odor
